Source: patent US8846710B2, “Method of preferentially inducing the biosynthesis of interferon” (3M Innovative Properties Company, priority 2005, dated 2014)

Tests used:
interferon (α) (IFN-α) = assay: Cytokine induction in human cells: IFN-α secreted by PBMC into culture media (ELISA); format: cell-based; settings: for Maximal Response IFN / Minimum Effective Concentration IFN: Table 11, median where tested in more than one experiment; for Maximal Response IFN / Minimum Effective Concentration IFN / minimal effective concentration: human PBMC; for minimal effective concentration: lowest tested concentration inducing IFN-α over usually 20 pg/mL, median where more than one experiment, read-out: Minimum Effective Concentration (μM) IFN; for Maximal Response (pg/mL) IFN: maximal response in dose response curve, median
Procedure, shortened: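 IFN-α secreted by density-gradient-isolated PBMC (final 2×10^6 cells/mL) was quantified by ELISA after 18–24 h compound exposure at 37 °C, typically 30-0.014 μM in 3-fold steps with ≤1% DMSO. Readings corrected for background and reference-compound variability; lowest concentration above usually 20 pg/mL reported, plus maximal response (pg/mL).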

[1] = system: tumor necrosis factor (α) (TNF-α); assay: Cytokine induction in human cells: TNF-α secreted by PBMC into culture media (ORIGEN M-Series immunoassay); format: cell-based; design: key to Maximal Response (pg/mL) TNF / Maximal Response TNF: If any negative values result from background subtraction, the reading is reported as “*”, and is noted as not reliably detectable; settings: for Minimum Effective Concentration TNF / Maximal Response TNF: Table 11; for Minimum Effective Concentration TNF / Maximal Response TNF / minimal effective concentration: human PBMC; for Minimum Effective Concentration TNF: median where tested in more than one experiment; for Maximal Response TNF / Maximal Response (pg/mL) TNF: median; for Maximal Response TNF: * = TNF below experimental background of 40 pg/mL; for minimal effective concentration: lowest tested concentration inducing TNF-α over usually 40 pg/mL, median where more than one experiment, read-out: Minimum Effective Concentration (μM) TNF; for Maximal Response (pg/mL) TNF: maximal response in dose response curve
Procedure, shortened: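 Secreted TNF-α (pg/mL) was quantified by ORIGEN M-Series immunoassay after 18 to 24 hours culture at 37° C of human PBMC (2×10^6 cells/mL final) with test compound (usually 30-0.014 μM, 3-fold series, DMSO ≤1%). Values were corrected for DMSO or experimental background and a reference-compound ratio, giving a minimum effective concentration.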

[2] = Table 10, * = below experimental background level

Structure (SMILES) | Maximal Response IFN (interferon (α) (IFN-α)) [pg/mL] | Minimum Effective Concentration IFN (interferon (α) (IFN-α)) [µM] | Minimum Effective Concentration TNF [1] [µM] | Maximal Response TNF [1] | minimal effective concentration (interferon (α) (IFN-α); Table 10) [µM] | Maximal Response (pg/mL) IFN (interferon (α) (IFN-α); [2]) [pg/mL] | minimal effective concentration ([1]; Table 10) [µM] | Maximal Response (pg/mL) TNF [1, 2] | Maximal Response (pg/mL) IFN (interferon (α) (IFN-α); Table 9, background-subtracted, reference-adjusted) [pg/mL] | Maximal Response (pg/mL) TNF ([1]; Table 9, * = below experimental background level of 40 pg/mL) [pg/mL]
COCCc1nc2c(N)nc3ccccc3c2n1CCNS(C)(=O)=O [Analog 72] | 5858 | 0.014 | 0.04 | 8547 pg/mL |  |  |  |  |  | 
Nc1nc2cc(-c3cccnc3)ccc2c2c1nc(CCO)n2CCCN1CCCC1=O [Example 160] |  |  |  |  | 30 | 109 | >30 | * |  | 
CCOCc1nc2c(N)nc3cc(-c4cccnc4)ccc3c2n1CCCCNC(=O)NC1CCCC1 [Analog 33] |  |  |  |  | 0.014 | 925 | 1.11 | 1618 pg/mL |  | 
CCc1nc2c(N)nc3ccccc3c2n1CC(C)(C)CNC(=O)Nc1ccccc1 [Analog 90] | 922 | 0.014 | 0.12 | 2098 pg/mL |  |  |  |  |  | 
Nc1nc2ccccc2c2c1nc(CCO)n2CCCCNC(=O)c1cnc2ccccc2n1 [Example 117] | 5520 | 0.37 | 3.33 | 1938 pg/mL |  |  |  |  |  | 
COCCc1nc2c(N)nc3cc(-c4ccccc4)ccc3c2n1CCCN1CCCC1=O [Analog 21] |  |  |  |  | 0.12 | 1880 | 1.11 | 201 pg/mL |  | 
CCCc1nc2c(N)nc3cc(-c4cccnc4)ccc3c2n1CC(C)(C)O [Analog 9, 1-(4-amino-2-propyl-7-pyridin-3-yl-1H-imidazo[4,5-c]quinolin-1-yl)-2-methylpropan-2-ol] |  |  |  |  |  | 597 |  | 3951 pg/mL | 597 | 3951
Nc1nc2ccccc2c2c1nc(CCO)n2CCCNC(=O)N1CCOCC1 [Example 128] | 75 | 30 | >30 | * |  |  |  |  |  | 
CCCNC(=O)NCCCCn1c(CO)nc2c(N)nc3cc(-c4cccnc4)ccc3c21 [Example 195] |  |  |  |  |  | 5089 |  | 81 pg/mL |  | 
Nc1nc2cc(-c3cccnc3)ccc2c2c1nc(CO)n2CCCCNC(=O)NC1CCCC1 [Example 197] |  |  |  |  |  | 4373 |  | 600 pg/mL |  | 
COCCc1nc2c(N)nc3ccccc3c2n1CCCNS(=O)(=O)c1ccc(C)cc1 [Analog 109] | 638 | 0.04 | 0.37 | 6169 pg/mL |  |  |  |  |  | 
Cc1ccc(S(=O)(=O)NCCCn2c(CCO)nc3c(N)nc4ccccc4c32)cc1 [Example 1, N-{3-[4-Amino-2-(2-hydroxyethyl)-1H-imidazo[4,5-c]quinolin-1-yl]propyl}-4-methylbenzenesulfonamide] | 1072 |  |  | 143 pg/mL |  |  |  |  |  | 
CCOCc1nc2c(N)nc3cc(-c4ccc(C)cc4)ccc3c2n1CC(C)(C)O [Analog 42] |  |  |  |  | 0.12 | 650 | 0.12 | 4456 pg/mL |  | 
CC(C)C(=O)NCCCCn1c(CO)nc2c(N)nc3cc(-c4cccnc4)ccc3c21 [Example 199] |  |  |  |  |  | 5880 |  | 217 pg/mL |  | 
COCc1nc2c(N)nc3ccccc3c2n1CC(C)(C)NS(C)(=O)=O [Analog 47] | 1638 | 0.37 | 3.33 | 7151 pg/mL |  |  |  |  |  | 
COCCc1nc2c(N)nc3ccccc3c2n1CCCNC(=O)NC(C)C [Analog 83] | 1289 | 0.12 | 1.11 | 1259 pg/mL |  |  |  |  |  | 
CCOCc1nc2c(N)nc3ccccc3c2n1CCCCNS(C)(=O)=O [Analog 51] | 2581 | 0.04 | 1.11 | 1439 pg/mL |  |  |  |  |  | 
